{"source": "ChEMBL document CHEMBL6109176", "about": "“Drug-like Antagonists of P2Y Receptor Subtypes: An Update” (J Med Chem, 2025)", "key": {"[1]": {"assay": "Antagonist activity at P2Y14R (unknown origin)", "set-up": "species or system Homo sapiens"}, "[2]": {"biological_target": "T1, P2Y purinoceptor 1 (Homo sapiens, UniProt P47900)", "T1 sequence (P47900 whole entry)": "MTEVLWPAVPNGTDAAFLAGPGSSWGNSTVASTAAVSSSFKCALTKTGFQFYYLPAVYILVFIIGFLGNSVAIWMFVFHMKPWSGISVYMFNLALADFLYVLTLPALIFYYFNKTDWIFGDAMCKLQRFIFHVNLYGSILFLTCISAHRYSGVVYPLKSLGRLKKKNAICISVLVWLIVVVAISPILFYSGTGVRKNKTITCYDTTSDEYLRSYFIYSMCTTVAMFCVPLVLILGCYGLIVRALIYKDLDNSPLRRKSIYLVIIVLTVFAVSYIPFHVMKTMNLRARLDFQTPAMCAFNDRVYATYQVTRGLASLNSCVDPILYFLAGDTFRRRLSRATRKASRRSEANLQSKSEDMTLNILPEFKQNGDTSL", "assay": "inhibition of P2Y1R (unknown origin)"}, "[3]": {"biological_target": "T2, P2Y purinoceptor 12 (Homo sapiens, UniProt Q9H244)", "T2 sequence (Q9H244 whole entry)": "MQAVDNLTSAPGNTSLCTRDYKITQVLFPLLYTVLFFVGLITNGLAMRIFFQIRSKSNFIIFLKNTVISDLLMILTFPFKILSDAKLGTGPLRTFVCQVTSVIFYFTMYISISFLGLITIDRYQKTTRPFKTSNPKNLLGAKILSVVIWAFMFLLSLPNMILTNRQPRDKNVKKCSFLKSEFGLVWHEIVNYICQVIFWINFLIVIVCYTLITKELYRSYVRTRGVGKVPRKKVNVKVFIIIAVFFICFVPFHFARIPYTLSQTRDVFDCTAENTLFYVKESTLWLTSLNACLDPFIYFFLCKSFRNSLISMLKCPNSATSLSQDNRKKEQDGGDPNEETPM", "assay": "Inhibition of P2Y12R (unknown origin) by HTS assay"}, "[4]": {"biological_target": "P2Y purinoceptor 2 (Homo sapiens, UniProt P41231)", "sequence (P41231 whole entry)": "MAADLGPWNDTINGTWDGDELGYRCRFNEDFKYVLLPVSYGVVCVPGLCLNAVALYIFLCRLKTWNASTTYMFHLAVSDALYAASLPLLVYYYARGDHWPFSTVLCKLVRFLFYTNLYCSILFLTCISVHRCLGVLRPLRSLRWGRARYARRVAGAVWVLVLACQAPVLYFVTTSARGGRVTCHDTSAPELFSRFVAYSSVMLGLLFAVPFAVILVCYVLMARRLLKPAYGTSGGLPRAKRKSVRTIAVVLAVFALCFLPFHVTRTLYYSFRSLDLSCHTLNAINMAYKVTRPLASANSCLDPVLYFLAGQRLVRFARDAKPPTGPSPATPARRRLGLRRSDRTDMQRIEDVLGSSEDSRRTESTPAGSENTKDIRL", "assay": "Antagonist activity at human P2Y2R stably expressed in 1321N1 cells assessed as UTP-induced Ca2+ accumulation preincubated with compound for 30 mins followed by UTP addition by […]", "assay_type": "functional, cell-based"}, "[5]": {"biological_target": "T1, P2Y purinoceptor 1", "assay": "Binding affinity yo human P2Y1R extracted from baculovirus infected Sf9 cells assessed as inhibition constant incubated for 30 mins"}, "[6]": {"assay": "Inhibition of platelet aggregation in human platelet rich plasma preincubated for 5 mins followed by aggregation inducer addition and measured after 5 mins by light transmission aggregation method", "assay_type": "functional"}, "[7]": {"biological_target": "T2, P2Y purinoceptor 12", "assay": "Binding affinity to human P2Y12R expressed in CHO cells assessed as dissociation constant SPR assay"}, "[8]": {"biological_target": "T3, P2Y purinoceptor 14 (Homo sapiens, UniProt Q15391)", "T3 sequence (Q15391 whole entry)": "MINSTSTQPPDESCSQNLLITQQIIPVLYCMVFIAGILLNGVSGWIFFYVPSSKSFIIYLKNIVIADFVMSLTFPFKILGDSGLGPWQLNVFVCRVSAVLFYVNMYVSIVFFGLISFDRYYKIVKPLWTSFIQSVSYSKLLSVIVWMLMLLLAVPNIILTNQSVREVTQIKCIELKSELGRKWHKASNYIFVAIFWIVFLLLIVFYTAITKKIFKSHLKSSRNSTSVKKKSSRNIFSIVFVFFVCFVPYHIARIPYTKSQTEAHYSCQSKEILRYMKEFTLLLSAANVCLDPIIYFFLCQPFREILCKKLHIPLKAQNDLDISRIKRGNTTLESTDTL", "assay": "Binding affinity to P2Y14R (unknown origin) expressed in CHO cells assessed as inhibition constant", "assay_type": "cell-based"}, "[9]": {"biological_target": "T2, P2Y purinoceptor 12", "assay": "Antagonist activity at P2Y12R (unknown origin)"}}, "data": [{"smiles": "O=C(O)c1cc(-c2ccc(-c3cn([C@@H]4O[C@H](CO)[C@@H](O)[C@H](O)[C@H]4O)nn3)cc2)c2ccc(-c3ccc(C(F)(F)F)cc3)cc2c1", "values": [{"measurement": "IC50", "setting": "[1]", "value": 12.8, "unit": "nM"}]}, {"smiles": "O=C(O)c1cc(-c2ccc(C3CCN(CCc4cn([C@@H]5O[C@H](CO)[C@@H](O)[C@H](O)[C@H]5O)nn4)CC3)cc2)c2ccc(-c3ccc(C(F)(F)F)cc3)cc2c1", "values": [{"measurement": "IC50", "setting": "[1]", "value": 2.4, "unit": "nM"}]}, {"smiles": "Cc1nc(/N=N/c2cc([N+](=O)[O-])ccc2Cl)c(COP(=O)(O)O)c(C=O)c1O", "values": [{"measurement": "IC50", "setting": "[2]", "value": 1100, "unit": "nM"}]}, {"smiles": "CCOC(=O)N1CCN(C(=O)[C@H](CCC(=O)O)NC(=O)c2cc(OC(C)(C)C(=O)OCC)c3ccc(C)cc3n2)CC1", "values": [{"measurement": "IC50", "setting": "[3]", "value": 97, "unit": "nM"}]}, {"smiles": "Cc1nc(/N=N/c2ccc(Cl)c([N+](=O)[O-])c2)c(COP(=O)(O)O)c(C=O)c1O", "values": [{"measurement": "IC50", "setting": "[2]", "value": 660, "unit": "nM"}]}, {"smiles": "CC(NC(=O)C(C)c1ccc(-c2ccccc2)c(F)c1)C(=O)O", "note": "(stereo not drawn)", "values": [{"measurement": "IC50", "setting": "[1]", "value": 5.12, "unit": "nM"}]}, {"smiles": "Cc1cc(O)c(C2=Nc3cc(C(F)(F)F)ccc3SC(c3cccc(O)c3)C2)c(=O)o1", "note": "(stereo not drawn)", "values": [{"measurement": "IC50", "setting": "[4]", "value": 10900, "unit": "nM"}]}, {"smiles": "CNc1nc(I)nc2c1ncn2[C@H]1C[C@H](OP(=O)(O)O)[C@]2(COP(=O)(O)O)C[C@H]12", "values": [{"measurement": "Ki", "setting": "[5]", "value": 0.79, "unit": "nM"}]}, {"smiles": "CCCCOC(=O)N1CCN(C(=O)[C@H](CP(=O)(O)O)NC(=O)c2cc(N3CC[C@H](OC)C3)nc(-c3ccccc3)n2)CC1", "note": "[SELATOGREL]", "values": [{"measurement": "IC50", "setting": "[6]", "value": 14, "unit": "nM"}, {"measurement": "Kd", "setting": "[7]", "value": 1.5, "unit": "nM"}]}, {"smiles": "N=C1C=CC2=C(c3ccc(C(=O)NCCCCCCn4cc(CCCCN5CCC(c6ccc(-c7cc(C(=O)O)cc8cc(-c9ccc(C(F)(F)F)cc9)ccc78)cc6)CC5)nn4)cc3C(=O)O)C3C=CC(N)=C(S(=O)(=O)O)C3OC2C1S(=O)(=O)O", "note": "(stereo not drawn)", "values": [{"measurement": "Ki", "setting": "[8]", "value": 0.08, "unit": "nM"}]}, {"smiles": "CNc1cc2[nH]c(=O)n(-c3ccc(NC(=O)NS(=O)(=O)c4ccc(Cl)s4)cc3)c(=O)c2cc1F", "note": "[ELINOGREL]", "values": [{"measurement": "IC50", "setting": "[9]", "value": "< 10000", "unit": "nM"}]}, {"smiles": "CCOC(=O)N1CCN(C(=O)[C@H](CCC(=O)O)NC(=O)c2cc(OC(C)(C)C(=O)O)c3ccc(C)cc3n2)CC1", "values": [{"measurement": "IC50", "setting": "[3]", "value": 290, "unit": "nM"}]}]}
